Measured values: patent US8604029B2, “2-[(2-substituted)-indolizin-3-yl]-2-oxo-acetamide derivatives as antifungal agents” (F2G Ltd British Body Corporate, priority 2006, dated 2013)
Values after ≈ are worked out from the molar mass of the structure shown.

These molecules were tested on Aspergillus fumigatus (assay: MIC measurement, YAG medium). Settings: Aspergillus fumigatus, read-out: MIC A. fumigatus.
Type: cell-based
Method: Between 1 and 5 mgs of compound were accurately weighed out into a sterile Eppendorf tube. The compound was dissolved in DMSO to give a solution containing […]. Tubes were stored at −20° C. until required.
On the day of testing thawed solutions were vortex mixed to ensure homogeneity. 30 μL of solution was removed and added to 570 μL of sterile water in a separate sterile Eppendorf. The thoroughly mixed solution was used to prepare a series of doubling dilutions in water, in a deep well plate. Thirteen replicate plates were prepared using a Minitrak by aspirating 20 μL from each well into eleven clear polystyrene 96 well plates.
Spores of Aspergillus spp. (Aspergillus fumigatus [two strains], Aspergillus terreus [two strains], Aspergillus niger and Aspergillus flavus) were harvested from cultures grown on Sabarauds agar for 5 days, and resuspended in PBS/Tween 80 to approx 1×10^7 cfu/mL. Other filamentous fungi (Absidia corymbifera, Fusarium solani, Rhizomucor, Scedosporium spp., Trichophyton spp.), were grown on Sabarauds agar for 2-10 days and spores/hyphae resuspended in PBS/Tween to give approx 1×10^7 cfu/mL. Candida species (Candida albicans, Candida glabrata, Candida krusei, Candida parapsilosis and Candida tropicalis) were grown on Sabarauds agar, cells were harvested from the agar using a sterile loop and resuspended in PBS/Tween 80 to approx 1×10^6 cfu/mL. Each organism suspension was diluted in RPMI medium, containing 2% glucose and 0.135 M MOPS buffer (pH 7.0) to 0.5-2×10^4 cfu/mL for Aspergillus spp. and other filamentous fungi and 0.5-2×10^3 cfu/mL for yeast. 80 μL of an organism suspension was added to each well of the plate containing drug dilutions.
This produced MIC plates with a drug range 50-0.05 mg/L and organism inocula of 1-2×10^4 cfu/mL for Aspergillus spp. and other filamentous fungi and 1-2×10^3 cfu/mL for yeasts. All plates were incubated for 24-48 hrs at 35° C. Growth was assessed by monitoring the optical density at 485 nm for each well. The MIC of a compound is the lowest drug concentration that inhibits growth of an organism by >80% compared with a drug free control. MICs are recorded as mg/L. Other growth media can be used for susceptibility testing, and the activity of the described compounds can also be assessed in a medium comprising 1% glucose, 1% ammonium chloride and 0.5% yeast extract (YAG medium). To perform MIC tests in this medium, dilutions of compounds are prepared in microtitre plates as described above. Fungal strains to be tested are grown and harvested in an identical manner to that described above, each organism suspension is then diluted in YAG medium to 0.5-2×10^4 cfu/mL for Aspergillus spp. and other filamentous fungi and 0.5-2×10^3 cfu/mL for yeast. 80 μL of an organism suspension was added to each well of the plate containing drug dilutions. This produced MIC plates with a drug range 50-0.05 mg/L and organism inocula of 1-2×10^4 cfu/mL for Aspergillus spp. and other filamentous fungi and 1-2×10^3 cfu/mL for yeasts. All plates were incubated for 24 hrs at 35° C. Growth was assessed by monitoring the optical density at 485 nm for each well. The MIC of a compound is the lowest drug concentration that inhibits growth of an organism by >70% compared with a drug free control. MICs are recorded as mg/L. In cases where the MIC of an organism is […] mg/L the MIC is repeated using a concentration range of 0.5-0.0005 mg/L. MIC tests in YAG medium have more clear-cut endpoints and have slightly lower MICs than those performed in RPMI medium.
The following organisms were tested: Absidia corymbifera, Aspergillus flavus, Aspergillus fumigatus AF293 and AF210, Aspergillus niger, Aspergillus terreus AT4 and AT49, Candida albicans, Candida glabrata, Candida krusei, Candida parapsilosis, Candida tropicalis, Fusarium solani, Rhizomucor sp., Scedosporium apiospermum, Scedosporium prolificans, Trichophyton mentagrophytes, and Trichophyton rubrum.

Row | SMILES | MIC [µg/mL]
1 | O=C1Cc2cc(NC(=O)C(=O)c3c(-c4ccccc4)cc4ccccn34)ccc2N1 [Example 9, 2-Oxo-N-(2-oxo-2,3-dihydro-1H-indol-5-yl)-2-(2-phenyl-indolizin-3-yl)-acetamide] | > 10
2 | CCN(CC)C(=O)Oc1cc(-c2ccc(NC(=O)C(=O)c3c(-c4ccccc4)cc4ccccn34)cc2)on1 [Example 27, Diethyl-carbamic acid-5-{4-[2-oxo-2-(2-phenyl-indolizin-3-yl)-aeetylamino]-phenyl}-isoxazol-3-yl ester] | < 1

Same assay, conditions: Aspergillus fumigatus; YAG medium; MIC banded into grades; strain AF293; read-out: MIC A. fumigatus

Row | SMILES | MIC [µg/mL]
3 | O=C(Nc1ccc(N2CCS(=O)(=O)CC2)cc1)C(=O)c1c(-c2ccccc2)cc2ccccn12 [Example 1, N-[4-(1,1-Dioxo-1λ^6-thiomorpholin-4-yl)-phenyl]-2-oxo-2-(2-phenyl-indolizin-3-yl)-acetamide] | > 10
4 | CON=C1CCN(c2ccc(NC(=O)C(=O)c3c(-c4ccccc4)cc4ccccn34)cc2)CC1 [Example 2, N-[4-(4-methoxyimino-piperidin-1-yl)-phenyl]-2-oxo-2-(2-phenyl-indolizin-3-yl)-acetamide] | < 1
5 | O=C(Nc1ccccc1F)C(=O)c1c(-c2ccccc2)cc2ccc3ccccc3n12 [Example 4, N-(2-fluoro-phenyl)-2-oxo-2-(2-phenyl-pyrrolo[1,2-a]quinolin-1-yl)-acetamide] | > 10
6 | CS(=O)(=O)NC(=O)c1ccc(NC(=O)C(=O)c2c(-c3ccccc3)cc3ccccn23)cc1 [Example 5, N-(4-methanesulfonylaminocarbonyl-phenyl)-2-oxo-2-(2-phenyl-indolizin-3-yl)-acetamide] | > 10
7 | COc1ccc(NC(=O)C(=O)c2c(C)c(-c3ccccc3)c3ccccn23)cc1 [Example 6, N-(4-methoxy-phenyl)-2-(2-methyl-1-phenyl-indolizin-3-yl)-2-oxo-acetamide] | > 10
8 | Cc1c(-c2ccccc2)c2ccccn2c1C(=O)C(=O)Nc1ccc(N2CCOCC2)cc1 [Example 7, 2-(2-methyl-1-phenyl-indolizin-3-yl)-N-(4-morpholin-4-yl-phenyl)-2-oxo-acetamide] | > 10
9 | CN1/C(=N/c2ccc(NC(=O)C(=O)c3c(-c4ccccc4)cc4ccccn34)cc2)OCC1(C)C [Example 8, 2-oxo-2-(2-phenyl-indolizin-3-yl)-N-{4-[3,4,4-trimethyl-oxazolidin-(2Z)-ylideneamino]-phenyl}-acetamide] | > 10
10 | CCC(CC)N1CCN(c2ccc(NC(=O)C(=O)c3c(-c4ccccc4Cl)cc4ccccn34)cn2)CC1 [Example 10, 2-[2-(2-chloro-phenyl)-indolizin-3-yl]-N-{6-[4-(1-ethyl-propyl)-piperazin-1-yl]-pyridin-3-yl}-2-oxo-acetamide] | < 1
11 | O=C(Nc1ccc(C(=O)OC2CCOCC2)c(O)c1)C(=O)c1c(-c2ccccc2)cc2ccccn12 [Example 11, 2-hydroxy-4-[2-oxo-2-(2-phenyl-indolizin-3-yl)-acetylamino]-benzoic acid tetrahydro-pyran-4-yl ester] | < 1
12 | Cc1cc(NC(=O)C(=O)c2c(-c3ccccc3)cc3ccccn23)ccc1OCCCn1ccnc1C(C)C [Example 12, N-{4-[3-(2-Isopropyl-imidazol-1-yl)-propoxy]-3-methyl-phenyl}-2-oxo-2-(2-phenyl-indolizin-3-yl)-acetamide] | 1 to 10 (≈ 1.92 to 19.2 µM)
13 | CC(C)c1nc(C(C)(C)c2cccc(NC(=O)C(=O)c3c(-c4ccccc4)cc4ccccn34)c2)cn1C [Example 14, N-{3-[1-(2-Isopropyl-1-methyl-1H-imidazol-4-yl)-1-methyl-ethyl]-phenyl}-2-oxo-2-(2-phenyl-indolizin-3-yl)-acetamide] | > 10
14 | CC(C)c1ncc(C(C)(C)c2cccc(NC(=O)C(=O)c3c(-c4ccccc4)cc4ccccn34)c2)n1C [Example 15, N-{3-[1-(2-Isopropyl-3-methyl-3H-imidazol-4-yl)-1-methyl-ethyl]-phenyl}-2-oxo-2-(2-phenyl-indolizin-3-yl)-acetamide] | > 10
15 | CC(C)c1nc(C(C)(C)c2ccc(NC(=O)C(=O)c3c(-c4ccccc4)cc4ccccn34)cc2)cn1C [Example 16, N-{4-[1-(2-isopropyl-1-methyl-1H-imidazol-4-yl)-1-methyl-ethyl]-phenyl}-2-oxo-2-(2-phenyl-indolizin-3-yl)-acetamide] | 1 to 10 (≈ 1.98 to 19.8 µM)
16 | CC(C)c1ncc(C(C)(C)c2ccc(NC(=O)C(=O)c3c(-c4ccccc4)cc4ccccn34)cc2)n1C [Example 17, N-{4-[1-(2-Isopropyl--3-methyl-3H-imidazol-4-yl)-1-methyl-ethyl]-phenyl}-2-oxo-2-(2-phenyl-indolizin-3-yl)-acetamide] | > 10
17 | CC(C)c1nccn1CCOC(=O)C(C)(C)c1ccc(NC(=O)C(=O)c2c(-c3ccccc3)cc3ccccn23)cc1 [Example 18, 2-methyl-2-{4-[2-oxo-2-(2-phenyl-indolizin-3-yl)-acetylamino]-phenyl}-propionic acid 2-(2-isopropyl-imidazol-1-yl)-ethyl ester] | > 10
18 | CN1CCN(c2ccc(NC(=O)C(=O)c3c(-c4ccccc4)cc4ccccn34)cc2-c2ncco2)CC1 [Example 19, N-[4-(4-methyl-piperazin-1-yl)-3-oxazol-2-yl-phenyl]-2-oxo-2-(2-phenyl-indolizin-3-yl)-acetamide] | > 10
19 | Cc1nccn1CCCOc1ccc(NC(=O)C(=O)c2c(-c3ccccc3)cc3ccccn23)cc1C(C)C [Example 20, N-{3-Isopropyl-4-[3-(2-methyl-imidazol-1-yl)-propoxy]-phenyl}-2-oxo-2-(2-phenyl-indolizin-3-yl)-acetamide] | 1 to 10 (≈ 1.92 to 19.2 µM)
20 | Cc1cc(C)nc(N2CCN(c3ccc(NC(=O)C(=O)c4c(-c5ccccc5)cc5ccccn45)cc3)CC2)c1 [Example 21, N-{4-[4-(4,6-Dimethyl-pyridin-2-yl)-piperazin-1-yl]-phenyl}-2-oxo-2-(2-phenyl-indolizin-3-yl)-acetamide] | < 1
21 | CC(C)c1nccn1CCOC(=O)C(C)(C)c1cccc(NC(=O)C(=O)c2c(-c3ccccc3)cc3ccccn23)c1 [Example 22, 2-Methyl-2-{3-[2-oxo-2-(2-phenyl-indolizin-3-yl)-acetylamino]-phenyl}-propionic acid 2-(2-isopropyl-imidazol-1-yl)-ethyl ester] | > 10
22 | O=C(Nc1ccc(N2CCC3(CC2)OCCO3)cc1)C(=O)c1c(-c2ccccc2)cc2ccccn12 [Example 23, N-[4-(1,4-dioxa-8-aza-spiro[4.5]dec-8-yl)-phenyl}-2-oxo-2-(2-phenyl-indolizine-3-yl)-acetamide] | < 1
23 | Cc1cc(C)nc(N2CCN(c3ccc(NC(=O)C(=O)c4c(-c5ccccc5)cc5ccc(F)cn45)cc3)CC2)c1 [Example 32, N-{4-[4-(4,6-Dimethyl-pyridin-2-yl)-piperazin-1-yl]-phenyl}-2-(6-fluoro-2-phenyl-indolizin-3-yl)-2-oxo-acetamide] | < 1
24 | O=C(Nc1ccc(N2CCN(CCc3ccco3)CC2)cc1)C(=O)c1c(-c2ccccc2)cc2ccccn12 [Example 39, N-{4-[4-(2-Furan-2-yl-ethyl)-piperazin-1-yl]-phenyl}-2-oxo-2-(2-phenyl-indolizin-3-yl)-acetamide] | < 1
25 | C=C(C)CN1CCN(c2ccc(NC(=O)C(=O)c3c(-c4ccc(N5CCOCC5)cc4)cc4ccccn34)cc2)CC1 [Example 40, N-{4-[4-(2-Methyl-allyl)-piperazin-1-yl]-phenyl}-2-[2-(4-morpholin-4-yl-phenyl)-indolizin-3-yl]-2-oxo-acetamide] | > 10
26 | Cc1cccc(N2CCN(c3ccc(NC(=O)C(=O)c4c(-c5ccccc5)cc5ccccn45)cc3)CC2)n1 [Example 43, N-{4-[4-(6-Methyl-pyridin-2-yl)-piperazin-1-yl]-phenyl}-2-oxo-2-(2-phenyl-indolizin-3-yl)-acetainide] | < 1
